Data as given in PMC5392334, “Discovery and characterization of a novel irreversible EGFR mutants selective and potent kinase inhibitor CHMFL-EGFR-26 with a distinct binding mode” (Oncotarget, 2017).

Key:
Test in all cases: KinomeScan
Assay type in all cases: binding
CSNK1G1 = target: T1, CSNK1G1 (Homo sapiens, UniProt Q9HCP0); conditions: read-out: % control
T1 construct: purchased DiscoveRx KINOMEscan

PIK4CB = target: T2, PIK4CB (Homo sapiens, UniProt Q9UBF8); conditions: read-out: % control
T2 construct: purchased DiscoveRx KINOMEscan

p38-gamma = target: T3, p38-gamma (Homo sapiens, UniProt P53778); conditions: read-out: % control
T3 construct: purchased DiscoveRx KINOMEscan

FLT3-autoinhibited = target: T4, FLT3-autoinhibited (Homo sapiens, UniProt P36888); conditions: read-out: % control
T4 construct: purchased DiscoveRx KINOMEscan

EGFR(L858R) = target: T5, EGFR(L858R) (Homo sapiens, UniProt P00533, L858R); conditions: read-out: % control
T5 construct: purchased DiscoveRx KINOMEscan

MKNK2 = target: T6, MKNK2 (Homo sapiens, UniProt Q9HBH9); conditions: read-out: % control
T6 construct: purchased DiscoveRx KINOMEscan

MEK5 = target: T7, MEK5 (Homo sapiens, UniProt Q13163); conditions: read-out: % control
T7 construct: purchased DiscoveRx KINOMEscan

TNK2 = target: T8, TNK2 (Homo sapiens, UniProt Q07912); conditions: read-out: % control
T8 construct: purchased DiscoveRx KINOMEscan

PIK3CA(M1043I) = target: T9, PIK3CA(M1043I) (Homo sapiens, UniProt P42336, M1043I); conditions: read-out: % control
T9 construct: purchased DiscoveRx KINOMEscan

BRSK1 = target: T10, BRSK1 (Homo sapiens, UniProt Q8TDC3); conditions: read-out: % control
T10 construct: purchased DiscoveRx KINOMEscan

PFTAIRE2 = target: T11, PFTAIRE2 (Homo sapiens, UniProt Q96Q40); conditions: read-out: % control
T11 construct: purchased DiscoveRx KINOMEscan

p38-beta = target: T12, p38-beta (Homo sapiens, UniProt Q15759); conditions: read-out: % control
T12 construct: purchased DiscoveRx KINOMEscan

NEK11 = target: T13, NEK11 (Homo sapiens, UniProt Q8NG66); conditions: read-out: % control
T13 construct: purchased DiscoveRx KINOMEscan

[1] = target: T14, ABL1(E255K)-phosphorylated (Homo sapiens, UniProt P00519, E255K); conditions: read-out: % control
T14 construct: purchased DiscoveRx KINOMEscan

[2] = target: T15, RPS6KA5(Kin.Dom.1-N-terminal) (Homo sapiens, UniProt O75582); conditions: read-out: % control
T15 construct: RPS6KA5(Kin.Dom.1-N-terminal); purchased DiscoveRx KINOMEscan

FLT3(D835H) = target: T16, FLT3(D835H) (Homo sapiens, UniProt P36888, D835H); conditions: read-out: % control
T16 construct: purchased DiscoveRx KINOMEscan

ULK1 = target: T17, ULK1 (Homo sapiens, UniProt O75385); conditions: read-out: % control
T17 construct: purchased DiscoveRx KINOMEscan

[3] = target: T18, RSK2(Kin.Dom.2-C-terminal) (Homo sapiens, UniProt P51812); conditions: read-out: % control
T18 construct: RSK2(Kin.Dom.2-C-terminal); purchased DiscoveRx KINOMEscan

KIT(L576P) = target: T19, KIT(L576P) (Homo sapiens, UniProt P10721, L576P); conditions: read-out: % control
T19 construct: purchased DiscoveRx KINOMEscan

[4] = target: T20, ABL1(Q252H)-phosphorylated (Homo sapiens, UniProt P00519, Q252H); conditions: read-out: % control
T20 construct: purchased DiscoveRx KINOMEscan

ASK2 = target: T21, ASK2 (Homo sapiens, UniProt O95382); conditions: read-out: % control
T21 construct: purchased DiscoveRx KINOMEscan

FAK = target: T22, FAK (Homo sapiens, UniProt Q05397); conditions: read-out: % control
T22 construct: purchased DiscoveRx KINOMEscan

CSNK1G2 = target: T23, CSNK1G2 (Homo sapiens, UniProt P78368); conditions: read-out: % control
T23 construct: purchased DiscoveRx KINOMEscan

PRKD1 = target: T24, PRKD1 (Homo sapiens, UniProt Q15139); conditions: read-out: % control
T24 construct: purchased DiscoveRx KINOMEscan

STK39 = target: T25, STK39 (Homo sapiens, UniProt Q9UEW8); conditions: read-out: % control
T25 construct: purchased DiscoveRx KINOMEscan

KIT-autoinhibited = target: T26, KIT-autoinhibited (Homo sapiens, UniProt P10721); conditions: read-out: % control
T26 construct: purchased DiscoveRx KINOMEscan

BMPR2 = target: T27, BMPR2 (Homo sapiens, UniProt Q13873); conditions: read-out: % control
T27 construct: purchased DiscoveRx KINOMEscan

KIT = target: T28, KIT (Homo sapiens, UniProt P10721); conditions: read-out: % control
T28 construct: purchased DiscoveRx KINOMEscan

WNK2 = target: T29, WNK2 (Homo sapiens, UniProt Q9Y3S1); conditions: read-out: % control
T29 construct: purchased DiscoveRx KINOMEscan

NEK5 = target: T30, NEK5 (Homo sapiens, UniProt Q6P3R8); conditions: read-out: % control
T30 construct: purchased DiscoveRx KINOMEscan

GRK1 = target: T31, GRK1 (Homo sapiens, UniProt Q15835); conditions: read-out: % control
T31 construct: purchased DiscoveRx KINOMEscan

DMPK2 = target: T32, DMPK2 (Homo sapiens, UniProt Q6DT37); conditions: read-out: % control
T32 construct: purchased DiscoveRx KINOMEscan

CSK = target: T33, CSK (Homo sapiens, UniProt P41240); conditions: read-out: % control
T33 construct: purchased DiscoveRx KINOMEscan

FLT3(ITD) = conditions: 1μM
TGFBR2 = target: T34, TGFBR2 (Homo sapiens, UniProt P37173); conditions: read-out: % control
T34 construct: purchased DiscoveRx KINOMEscan

MST2 = target: T35, MST2 (Homo sapiens, UniProt Q13188); conditions: read-out: % control
T35 construct: purchased DiscoveRx KINOMEscan

PIK3C2B = target: T36, PIK3C2B (Homo sapiens, UniProt O00750); conditions: read-out: % control
T36 construct: purchased DiscoveRx KINOMEscan

FLT3 = target: T37, FLT3 (Homo sapiens, UniProt P36888); conditions: read-out: % control
T37 construct: purchased DiscoveRx KINOMEscan

[5] = target: T38, EGFR(L747-E749del, A750P) (Homo sapiens, UniProt P00533, A750P/DEL747-749); conditions: read-out: % control
T38 construct: purchased DiscoveRx KINOMEscan

FGFR3 = target: T39, FGFR3 (Homo sapiens, UniProt P22607); conditions: read-out: % control
T39 construct: purchased DiscoveRx KINOMEscan

PIK3CA(H1047Y) = target: T40, PIK3CA(H1047Y) (Homo sapiens, UniProt P42336, H1047Y); conditions: read-out: % control
T40 construct: purchased DiscoveRx KINOMEscan

CLK4 = target: T41, CLK4 (Homo sapiens, UniProt Q9HAZ1); conditions: read-out: % control
T41 construct: purchased DiscoveRx KINOMEscan

T22 sequence (Q05397 whole entry): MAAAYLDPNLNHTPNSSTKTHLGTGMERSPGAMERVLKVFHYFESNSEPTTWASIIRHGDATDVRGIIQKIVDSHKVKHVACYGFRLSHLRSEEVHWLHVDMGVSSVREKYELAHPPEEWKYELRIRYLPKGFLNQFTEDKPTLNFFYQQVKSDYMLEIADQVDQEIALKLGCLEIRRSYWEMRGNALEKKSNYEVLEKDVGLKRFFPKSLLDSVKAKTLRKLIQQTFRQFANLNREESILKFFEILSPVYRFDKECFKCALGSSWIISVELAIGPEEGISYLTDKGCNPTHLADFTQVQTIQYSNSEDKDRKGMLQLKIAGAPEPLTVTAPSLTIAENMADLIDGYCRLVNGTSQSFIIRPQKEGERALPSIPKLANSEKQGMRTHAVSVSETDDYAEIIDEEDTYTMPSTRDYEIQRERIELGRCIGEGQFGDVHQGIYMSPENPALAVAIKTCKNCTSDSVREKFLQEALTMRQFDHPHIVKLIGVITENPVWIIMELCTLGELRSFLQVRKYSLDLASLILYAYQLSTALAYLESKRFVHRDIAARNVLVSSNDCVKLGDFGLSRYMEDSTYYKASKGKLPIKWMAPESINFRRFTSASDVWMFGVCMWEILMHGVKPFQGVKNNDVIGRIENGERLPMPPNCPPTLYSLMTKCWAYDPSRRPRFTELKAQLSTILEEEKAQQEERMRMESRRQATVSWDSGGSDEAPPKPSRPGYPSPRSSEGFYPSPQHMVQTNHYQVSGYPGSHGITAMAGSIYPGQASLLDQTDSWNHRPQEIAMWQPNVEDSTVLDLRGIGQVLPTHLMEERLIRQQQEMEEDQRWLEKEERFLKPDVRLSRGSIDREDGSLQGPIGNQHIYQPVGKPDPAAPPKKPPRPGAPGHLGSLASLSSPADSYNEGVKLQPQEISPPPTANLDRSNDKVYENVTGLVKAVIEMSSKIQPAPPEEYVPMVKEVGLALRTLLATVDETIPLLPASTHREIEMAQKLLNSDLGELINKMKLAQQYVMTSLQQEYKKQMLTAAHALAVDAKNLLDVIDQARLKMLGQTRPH
T9 sequence (P42336 whole entry M1043I): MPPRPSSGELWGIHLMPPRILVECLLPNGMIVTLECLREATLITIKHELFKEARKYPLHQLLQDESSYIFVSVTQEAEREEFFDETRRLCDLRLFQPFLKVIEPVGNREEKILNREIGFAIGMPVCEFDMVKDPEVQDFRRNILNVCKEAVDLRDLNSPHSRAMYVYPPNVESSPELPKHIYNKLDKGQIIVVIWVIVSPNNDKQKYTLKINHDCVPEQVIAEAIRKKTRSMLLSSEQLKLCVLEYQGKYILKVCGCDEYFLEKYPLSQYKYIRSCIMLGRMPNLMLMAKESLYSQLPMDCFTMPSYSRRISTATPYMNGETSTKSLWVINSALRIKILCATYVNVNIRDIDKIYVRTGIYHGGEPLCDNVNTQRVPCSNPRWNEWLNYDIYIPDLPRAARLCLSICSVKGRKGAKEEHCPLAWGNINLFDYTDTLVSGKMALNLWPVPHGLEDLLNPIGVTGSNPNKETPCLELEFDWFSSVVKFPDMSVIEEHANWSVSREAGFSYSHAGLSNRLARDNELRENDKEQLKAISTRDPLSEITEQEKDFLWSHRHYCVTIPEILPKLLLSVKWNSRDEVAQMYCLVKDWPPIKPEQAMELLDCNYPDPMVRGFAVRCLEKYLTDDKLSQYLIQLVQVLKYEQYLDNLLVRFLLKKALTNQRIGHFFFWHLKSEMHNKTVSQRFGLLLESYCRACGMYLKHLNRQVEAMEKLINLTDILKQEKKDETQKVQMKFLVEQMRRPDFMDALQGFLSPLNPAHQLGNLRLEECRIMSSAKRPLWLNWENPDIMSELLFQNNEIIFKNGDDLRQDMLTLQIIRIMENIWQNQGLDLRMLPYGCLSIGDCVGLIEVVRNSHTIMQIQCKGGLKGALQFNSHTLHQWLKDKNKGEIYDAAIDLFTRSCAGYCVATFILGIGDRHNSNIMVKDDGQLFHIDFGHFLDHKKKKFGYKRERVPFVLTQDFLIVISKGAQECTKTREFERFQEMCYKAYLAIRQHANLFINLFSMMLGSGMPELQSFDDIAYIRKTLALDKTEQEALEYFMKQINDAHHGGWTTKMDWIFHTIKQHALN
T39 sequence (P22607 23-806): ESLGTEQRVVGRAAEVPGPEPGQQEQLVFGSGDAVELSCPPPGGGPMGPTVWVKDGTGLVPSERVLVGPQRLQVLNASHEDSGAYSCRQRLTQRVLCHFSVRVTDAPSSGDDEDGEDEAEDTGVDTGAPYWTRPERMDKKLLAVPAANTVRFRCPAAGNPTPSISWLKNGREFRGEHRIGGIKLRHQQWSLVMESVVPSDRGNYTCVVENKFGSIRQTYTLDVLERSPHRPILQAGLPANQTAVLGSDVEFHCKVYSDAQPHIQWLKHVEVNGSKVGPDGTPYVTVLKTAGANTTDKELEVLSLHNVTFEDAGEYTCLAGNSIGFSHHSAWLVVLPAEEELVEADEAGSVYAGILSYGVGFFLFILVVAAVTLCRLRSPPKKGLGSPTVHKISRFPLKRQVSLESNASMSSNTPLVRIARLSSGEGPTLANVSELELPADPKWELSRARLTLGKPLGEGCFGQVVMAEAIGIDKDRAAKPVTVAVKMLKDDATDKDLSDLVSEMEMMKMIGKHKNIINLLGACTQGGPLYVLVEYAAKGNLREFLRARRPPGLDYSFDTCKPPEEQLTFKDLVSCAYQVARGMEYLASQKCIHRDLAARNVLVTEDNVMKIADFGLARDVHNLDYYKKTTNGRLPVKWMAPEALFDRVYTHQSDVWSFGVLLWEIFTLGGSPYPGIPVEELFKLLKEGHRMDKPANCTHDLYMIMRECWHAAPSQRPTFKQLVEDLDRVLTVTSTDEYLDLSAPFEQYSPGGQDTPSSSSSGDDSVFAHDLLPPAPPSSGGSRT
T32 sequence (Q6DT37 whole entry): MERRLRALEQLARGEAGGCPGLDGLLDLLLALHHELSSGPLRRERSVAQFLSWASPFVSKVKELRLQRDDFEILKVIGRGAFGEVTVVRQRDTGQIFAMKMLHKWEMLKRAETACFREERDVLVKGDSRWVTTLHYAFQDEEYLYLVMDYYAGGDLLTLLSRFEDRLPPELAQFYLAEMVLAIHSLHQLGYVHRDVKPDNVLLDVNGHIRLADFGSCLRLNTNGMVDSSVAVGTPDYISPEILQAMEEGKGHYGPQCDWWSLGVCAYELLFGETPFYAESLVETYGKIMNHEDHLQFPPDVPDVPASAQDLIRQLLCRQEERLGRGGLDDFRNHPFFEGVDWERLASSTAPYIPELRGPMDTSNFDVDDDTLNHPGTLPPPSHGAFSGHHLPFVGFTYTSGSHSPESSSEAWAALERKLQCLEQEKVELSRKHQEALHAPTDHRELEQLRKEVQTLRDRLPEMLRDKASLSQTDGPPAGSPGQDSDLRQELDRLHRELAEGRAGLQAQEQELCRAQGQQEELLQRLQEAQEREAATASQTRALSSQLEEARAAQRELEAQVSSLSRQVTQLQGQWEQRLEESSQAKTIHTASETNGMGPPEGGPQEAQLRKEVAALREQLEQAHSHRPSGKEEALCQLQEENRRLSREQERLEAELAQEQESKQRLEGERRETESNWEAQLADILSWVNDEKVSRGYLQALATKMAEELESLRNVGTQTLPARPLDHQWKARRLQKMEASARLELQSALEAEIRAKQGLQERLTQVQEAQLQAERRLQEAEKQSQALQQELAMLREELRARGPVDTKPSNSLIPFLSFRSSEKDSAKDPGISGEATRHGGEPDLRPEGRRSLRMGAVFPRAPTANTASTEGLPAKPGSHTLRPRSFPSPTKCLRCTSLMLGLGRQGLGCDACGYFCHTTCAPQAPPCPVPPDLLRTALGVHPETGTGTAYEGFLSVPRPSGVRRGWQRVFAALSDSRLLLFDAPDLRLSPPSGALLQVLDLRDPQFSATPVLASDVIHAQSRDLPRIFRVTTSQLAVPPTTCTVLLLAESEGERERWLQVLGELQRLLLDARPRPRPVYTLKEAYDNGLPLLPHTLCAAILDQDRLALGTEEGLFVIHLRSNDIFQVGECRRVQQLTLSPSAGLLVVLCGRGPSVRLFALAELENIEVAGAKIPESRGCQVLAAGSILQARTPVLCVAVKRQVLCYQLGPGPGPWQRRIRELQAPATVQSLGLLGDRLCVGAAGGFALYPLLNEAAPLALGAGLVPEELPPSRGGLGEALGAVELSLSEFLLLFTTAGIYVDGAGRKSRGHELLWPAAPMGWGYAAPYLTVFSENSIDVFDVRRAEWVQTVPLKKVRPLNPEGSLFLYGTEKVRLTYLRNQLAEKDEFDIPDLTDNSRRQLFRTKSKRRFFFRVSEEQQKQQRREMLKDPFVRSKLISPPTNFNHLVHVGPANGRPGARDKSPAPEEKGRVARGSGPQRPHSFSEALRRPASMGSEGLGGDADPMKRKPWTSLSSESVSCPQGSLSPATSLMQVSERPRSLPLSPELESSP
T18 sequence (P51812 398-740 limits assumed): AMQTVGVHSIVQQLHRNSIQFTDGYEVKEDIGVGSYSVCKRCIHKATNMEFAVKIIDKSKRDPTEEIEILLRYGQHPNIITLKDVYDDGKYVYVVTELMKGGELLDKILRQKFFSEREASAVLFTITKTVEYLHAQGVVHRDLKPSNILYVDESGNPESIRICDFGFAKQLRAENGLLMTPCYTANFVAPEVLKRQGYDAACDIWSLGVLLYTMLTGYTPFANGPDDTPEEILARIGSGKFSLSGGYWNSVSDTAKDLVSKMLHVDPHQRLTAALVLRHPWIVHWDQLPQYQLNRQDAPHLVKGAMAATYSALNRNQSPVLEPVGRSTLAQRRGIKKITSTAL
T40 sequence (P42336 whole entry H1047Y): as the sequence (P42336 whole entry M1043I) above, with I1043M, H1047Y counted along it

C=CC(=O)N1CCC[C@@H](n2nc(-c3ccc(OCc4cccc(C)n4)c(Cl)c3)c3c(N)ncnc32)C1 [CHMFL-EGFR-26]
remaining binding at 1 µM (CSNK1G1): 87%
remaining binding at 1 µM (PIK4CB): 100%
remaining binding at 1 µM (p38-gamma): 100%
remaining binding at 1 µM (FLT3-autoinhibited): 99%
remaining binding at 1 µM (EGFR(L858R)): 2.5%
remaining binding at 1 µM (MKNK2): 91%
remaining binding at 1 µM (MEK5): 0.1%
remaining binding at 1 µM (TNK2): 93%
remaining binding at 1 µM (PIK3CA(M1043I)): 100%
remaining binding at 1 µM (BRSK1): 93%
remaining binding at 1 µM (PFTAIRE2): 97%
remaining binding at 1 µM (p38-beta): 100%
remaining binding at 1 µM (NEK11): 100%
remaining binding at 1 µM [1]: 98%
remaining binding at 1 µM [2]: 100%
remaining binding at 1 µM (FLT3(D835H)): 100%
remaining binding at 1 µM (ULK1): 85%
remaining binding at 1 µM [3]: 100%
remaining binding at 1 µM (KIT(L576P)): 91%
remaining binding at 1 µM [4]: 100%
remaining binding at 1 µM (ASK2): 68%
remaining binding at 1 µM (FAK): 90%
remaining binding at 1 µM (CSNK1G2): 100%
remaining binding at 1 µM (PRKD1): 85%
remaining binding at 1 µM (STK39): 92%
remaining binding at 1 µM (KIT-autoinhibited): 95%
remaining binding at 1 µM (BMPR2): 100%
remaining binding at 1 µM (KIT): 100%
remaining binding at 1 µM (WNK2): 92%
remaining binding at 1 µM (NEK5): 93%
remaining binding at 1 µM (GRK1): 88%
remaining binding at 1 µM (DMPK2): 28%
remaining binding at 1 µM (CSK): 32%
% control (FLT3(ITD)): 87%
remaining binding at 1 µM (TGFBR2): 100%
remaining binding at 1 µM (MST2): 53%
remaining binding at 1 µM (PIK3C2B): 100%
remaining binding at 1 µM (FLT3): 95%
remaining binding at 1 µM [5]: 10%
remaining binding at 1 µM (FGFR3): 100%
remaining binding at 1 µM (PIK3CA(H1047Y)): 100%
remaining binding at 1 µM (CLK4): 100%
